Test results taken from ChEMBL document CHEMBL3885881, “DrugMatrix”.

Species: Rattus norvegicus
Test: DrugMatrix - Regimen: Daily Repeat
Assay type: toxicity, organism-based, Sprague-Dawley
Set-up: regimen Daily Repeat, gender Male, age 6-8 weeks
Conditions: in vivo, po, route oral GAVAGE, vehicle .5 % CMC; for ABSOLUTE BASOPHIL / ABSOLUTE EOSINOPHIL / ABSOLUTE LYMPHOCYTE / ABSOLUTE MONOCYTE / ABSOLUTE SEGMENTED NEUTROPHIL / BASOPHIL / EOSINOPHIL / ERYTHROCYTE COUNT / HEMATOCRIT / HEMOGLOBIN / LEUKOCYTE COUNT / LYMPHOCYTE / MEAN CORPUSCULAR HEMOGLOBIN / MEAN CORPUSCULAR HEMOGLOBIN CONCENTRATION / MEAN CORPUSCULAR VOLUME / MONOCYTE / NEUTROPHIL / NUCLEATED RED BLOOD CELLS / PLATELET COUNT: tissue Blood; for ALANINE AMINOTRANSFERASE / ALBUMIN / ALKALINE PHOSPHATASE / ASPARTATE AMINOTRANSFERASE / BLOOD UREA NITROGEN / CARBON DIOXIDE / CHLORIDE / CHOLESTEROL / CREATINE PHOSPHOKINASE / CREATININE / GLUCOSE / LACTATE DEHYDROGENASE / LIPASE / PHOSPHORUS / POTASSIUM / SODIUM / TOTAL BILIRUBIN / TOTAL PROTEIN / URIC ACID: tissue Plasma
[1] = 200 mg/kg, 72 h, dose level Low, time 3 day
[2] = 200 mg/kg, 120 h, dose level Low, time 5 day
[3] = 1000 mg/kg, 72 h, dose level High, time 3 day
[4] = 1000 mg/kg, 120 h, dose level High, time 5 day

## c1ccc(Nc2ccc(Nc3ccccc3)cc2)cc1
[1]
  ABSOLUTE BASOPHIL: 0 CELLS/uL
  ABSOLUTE EOSINOPHIL: 237 CELLS/uL
  ABSOLUTE LYMPHOCYTE: 13213.33 CELLS/uL
  ABSOLUTE MONOCYTE: 291.33 CELLS/uL
  ABSOLUTE SEGMENTED NEUTROPHIL: 1225 CELLS/uL
  BASOPHIL: 0%
  EOSINOPHIL: 1.67%
  ERYTHROCYTE COUNT: 5.4 x10E6/uL
  HEMATOCRIT: 33.57%
  HEMOGLOBIN: 12.87 G/DL
  LEUKOCYTE COUNT: 14.97 x10E3/uL
  LYMPHOCYTE: 88%
  MEAN CORPUSCULAR HEMOGLOBIN: 23.83 pg
  MEAN CORPUSCULAR HEMOGLOBIN CONCENTRATION: 38.33 G/DL
  MEAN CORPUSCULAR VOLUME: 62.2 fL
  MONOCYTE: 2%
  NEUTROPHIL: 8.33%
  NUCLEATED RED BLOOD CELLS: 0 /100WBC
  PLATELET COUNT: 1471 x10E3/uL
  ALANINE AMINOTRANSFERASE: 46.67 u/L
  ALBUMIN: 4.2 G/DL
  ALKALINE PHOSPHATASE: 353.67 u/L
  ASPARTATE AMINOTRANSFERASE: 106.33 u/L
  BLOOD UREA NITROGEN: 15 mg/dL
  CARBON DIOXIDE: 22 mmol/L
  CHLORIDE: 105.33 MEQ/L
  CHOLESTEROL: 67 mg/dL
  CREATINE PHOSPHOKINASE: 1002.33 u/L
  CREATININE: 0.23 mg/dL
  GLUCOSE: 178.33 mg/dL
  LACTATE DEHYDROGENASE: 537.67 u/L
  LIPASE: 9.33 u/L
  PHOSPHORUS: 12.7 mg/dL
  POTASSIUM: 6.26 MEQ/L
  SODIUM: 143.9 MEQ/L
  TOTAL BILIRUBIN: 0.23 mg/dL
  TOTAL PROTEIN: 5.57 G/DL
  URIC ACID: 1.87 mg/dL
[2]
  ABSOLUTE BASOPHIL: 0 CELLS/uL
  ABSOLUTE EOSINOPHIL: 45 CELLS/uL
  ABSOLUTE LYMPHOCYTE: 13082 CELLS/uL
  ABSOLUTE MONOCYTE: 237 CELLS/uL
  ABSOLUTE SEGMENTED NEUTROPHIL: 736 CELLS/uL
  BASOPHIL: 0%
  EOSINOPHIL: 0.33%
  ERYTHROCYTE COUNT: 5.63 x10E6/uL
  HEMATOCRIT: 36.07%
  HEMOGLOBIN: 13.67 G/DL
  LEUKOCYTE COUNT: 14.1 x10E3/uL
  LYMPHOCYTE: 92.67%
  MEAN CORPUSCULAR HEMOGLOBIN: 24.23 pg
  MEAN CORPUSCULAR HEMOGLOBIN CONCENTRATION: 37.93 G/DL
  MEAN CORPUSCULAR VOLUME: 63.97 fL
  MONOCYTE: 1.67%
  NEUTROPHIL: 5.33%
  NUCLEATED RED BLOOD CELLS: 0.33 /100WBC
  PLATELET COUNT: 1272.33 x10E3/uL
  ALANINE AMINOTRANSFERASE: 46 u/L
  ALBUMIN: 4.23 G/DL
  ALKALINE PHOSPHATASE: 349 u/L
  ASPARTATE AMINOTRANSFERASE: 77.67 u/L
  BLOOD UREA NITROGEN: 17 mg/dL
  CARBON DIOXIDE: 28 mmol/L
  CHLORIDE: 105.67 MEQ/L
  CHOLESTEROL: 70.67 mg/dL
  CREATINE PHOSPHOKINASE: 230.33 u/L
  CREATININE: 0.24 mg/dL
  GLUCOSE: 178 mg/dL
  LACTATE DEHYDROGENASE: 121.33 u/L
  LIPASE: 8.67 u/L
  PHOSPHORUS: 12.4 mg/dL
  POTASSIUM: 6.76 MEQ/L
  SODIUM: 148.13 MEQ/L
  TOTAL BILIRUBIN: 0.23 mg/dL
  TOTAL PROTEIN: 5.83 G/DL
  URIC ACID: 2 mg/dL
[3]
  ABSOLUTE BASOPHIL: 0 CELLS/uL
  ABSOLUTE EOSINOPHIL: 52.33 CELLS/uL
  ABSOLUTE LYMPHOCYTE: 13944 CELLS/uL
  ABSOLUTE MONOCYTE: 300.33 CELLS/uL
  ABSOLUTE SEGMENTED NEUTROPHIL: 1236.67 CELLS/uL
  BASOPHIL: 0%
  EOSINOPHIL: 0.33%
  ERYTHROCYTE COUNT: 5.47 x10E6/uL
  HEMATOCRIT: 34.97%
  HEMOGLOBIN: 13.1 G/DL
  LEUKOCYTE COUNT: 15.53 x10E3/uL
  LYMPHOCYTE: 89.67%
  MEAN CORPUSCULAR HEMOGLOBIN: 23.97 pg
  MEAN CORPUSCULAR HEMOGLOBIN CONCENTRATION: 37.47 G/DL
  MEAN CORPUSCULAR VOLUME: 63.93 fL
  MONOCYTE: 2%
  NEUTROPHIL: 8%
  NUCLEATED RED BLOOD CELLS: 0 /100WBC
  PLATELET COUNT: 1345 x10E3/uL
  ALANINE AMINOTRANSFERASE: 40 u/L
  ALBUMIN: 4.3 G/DL
  ALKALINE PHOSPHATASE: 405.33 u/L
  ASPARTATE AMINOTRANSFERASE: 83 u/L
  BLOOD UREA NITROGEN: 18.33 mg/dL
  CARBON DIOXIDE: 26.33 mmol/L
  CHLORIDE: 102.33 MEQ/L
  CHOLESTEROL: 78.33 mg/dL
  CREATINE PHOSPHOKINASE: 324.33 u/L
  CREATININE: 0.21 mg/dL
  GLUCOSE: 155.67 mg/dL
  LACTATE DEHYDROGENASE: 398 u/L
  LIPASE: 8.67 u/L
  PHOSPHORUS: 12.6 mg/dL
  POTASSIUM: 7.38 MEQ/L
  SODIUM: 144.77 MEQ/L
  TOTAL BILIRUBIN: 0.33 mg/dL
  TOTAL PROTEIN: 5.8 G/DL
  URIC ACID: 1.47 mg/dL
[4]
  ABSOLUTE BASOPHIL: 0 CELLS/uL
  ABSOLUTE EOSINOPHIL: 50 CELLS/uL
  ABSOLUTE LYMPHOCYTE: 13072 CELLS/uL
  ABSOLUTE MONOCYTE: 337.33 CELLS/uL
  ABSOLUTE SEGMENTED NEUTROPHIL: 907.33 CELLS/uL
  BASOPHIL: 0%
  EOSINOPHIL: 0.33%
  ERYTHROCYTE COUNT: 5.47 x10E6/uL
  HEMATOCRIT: 35.47%
  HEMOGLOBIN: 13.47 G/DL
  LEUKOCYTE COUNT: 14.37 x10E3/uL
  LYMPHOCYTE: 91%
  MEAN CORPUSCULAR HEMOGLOBIN: 24.77 pg
  MEAN CORPUSCULAR HEMOGLOBIN CONCENTRATION: 37.97 G/DL
  MEAN CORPUSCULAR VOLUME: 65.07 fL
  MONOCYTE: 2.33%
  NEUTROPHIL: 6.33%
  NUCLEATED RED BLOOD CELLS: 0 /100WBC
  PLATELET COUNT: 1396.67 x10E3/uL
  ALANINE AMINOTRANSFERASE: 42.33 u/L
  ALBUMIN: 4.23 G/DL
  ALKALINE PHOSPHATASE: 316.67 u/L
  ASPARTATE AMINOTRANSFERASE: 67 u/L
  BLOOD UREA NITROGEN: 16.33 mg/dL
  CARBON DIOXIDE: 29 mmol/L
  CHLORIDE: 105.67 MEQ/L
  CHOLESTEROL: 69.33 mg/dL
  CREATINE PHOSPHOKINASE: 202.33 u/L
  CREATININE: 0.25 mg/dL
  GLUCOSE: 159 mg/dL
  LACTATE DEHYDROGENASE: 84.33 u/L
  LIPASE: 9 u/L
  PHOSPHORUS: 12.27 mg/dL
  POTASSIUM: 6.19 MEQ/L
  SODIUM: 146.97 MEQ/L
  TOTAL BILIRUBIN: 0.33 mg/dL
  TOTAL PROTEIN: 5.83 G/DL
  URIC ACID: 1.73 mg/dL
